{
  "source": "patent US20150258096A1",
  "about": "“METHODS AND COMPOSITIONS FOR TREATMENT OF TH2-MEDIATED AND TH17-MEDIATED DISEASES” (THE REGENTS OF THE UNIVERSITY OF CALIFORNIA, priority 2012, published 2015)",
  "key": {"[1]": {"test_system": "WT CD11c^+ BM cells", "assay": "Co-culture of WT CD11c+ BM cells with OT-2 CD4+ T cells, IL-4 by ELISA (pro-Th2 phenotype)", "assay_type": "cell-based, mouse", "conditions": "H-89 10 μM; CE3F4 50 μM or 25 μM (method); 30 min at 37° C.; FIG. 9b", "description": "Cytokine levels in the supernatant were determined using ELISA kits for IL-4, IL-5, IL-13, IL-10, IFNγ, TNFα and IL-17A (eBioscience, La Jolla, Calif.) following the manufacturers' instructions as published^17.\nWT BM-derived CD11c^+ cells were cultured and then incubated with a PKA inhibitor (H-89, 10 μM), with or without pretreatment with pertussis toxin (PTX, 100 μg/ml, 18 h), or with EPAC inhibitor (CE3F4, 25 μM) for 30 min at 37° C., then washed and co-cultured with OT-2 T cells."}, "[2]": {"test_system": "Gnas^ΔCD11c CD11c^+ BM cells", "assay": "Co-culture of Gnas^ΔCD11c CD11c+ BM cells with OT-2 CD4+ T cells, IL-4 by ELISA (pro-Th2 phenotype)", "assay_type": "cell-based, mouse", "description": "For the inhibition of Th2 response by cAMP, fl/fl or Gnas^ΔCD11c BM-derived CD11c^+ cells were cultured as above, then, incubated with 8-CPT-cAMP (50 μM) for 24 h, washed and then co-cultured with OT-2 T cells."}, "[3]": {"test_system": "CCL2 expression in Gnas^ΔCD11c CD11c^+ BM cells", "assay": "CCL2 mRNA levels (qPCR) in CD11c+ BM cells", "assay_type": "cell-based, mouse", "conditions": "Gnas^ΔCD11c CD11c+ BM cells incubated with 8-CPT-cAMP 50 μM; FIG. 9g", "method": "Isolation of RNA was carried out using an RNeasy Mini Kit (QIAGEN, Valencia, Calif.) according to the manufacturer's instructions. The cDNA was synthesized using Superscript III First-Strand system (Invitrogen). Quantitative PCR analysis was performed as described previously^54. SYBR Green PCR Master Mix was used for real-time PCR (7300 system, Applied Biosystems). Samples were run in triplicate and normalized by a housekeeping gene (mouse GAPDH)."}, "[4]": {"test_system": "WT (B6) and Gnas^ΔCD11c recipient mice", "assay": "Adoptive transfer of OVA-loaded Gnas^ΔCD11c CD11c+ BM cells treated with or without 8-CPT-cAMP", "assay_type": "in vivo, mouse", "conditions": "BM cells treated in vitro with 50 μM 8-CPT-cAMP before i.n. transfer, 2×10^5 cells/recipient", "method": "FIG. 14: Adoptive transfer of CD11c^+ BM cells from Gnas^ΔCD11c mice induces a Th2 bias in vivo, a response that is inhibited by a cell-permeable cAMP analogue: (a) OVA-specific IL-4 response by OT-2 CD4^+ T cells co-cultured with cell-permeable cAMP (8-CPT-cAMP, 50 μM)-treated CD11c^+ BM cells, (b) Protocol of the adoptive transfer. OVA-loaded Gnas^ΔCD11c CD11c^+ BM cells were incubated in the absence and presence of 50 μM 8-CPT-cAMP (CPT) in vitro prior to i.n. transfer to WT (B6 mice) and Gnas^ΔCD11c recipients (2×10^5 cells/recipient), (c) IL-4 levels of anti-CD3/28 Ab-stimulated CD4^+ T cells (spleen) from WT or Gnas^ΔCD11c recipients (ELISA), (d) Serum levels of IgE and IgG1 from WT and Gnas^ΔCD11c mice that received Gnas^ΔCD11c CD11c^+ BM cells loaded with OVA with/without CPT, (e) Lung histology from WT and Gnas^ΔCD11c recipients (magnification ×100, scale bar: 100 μm) (Data are mean±s.e.m, n=3-4 in each group; * p<0.05, ** p<0.01, p<0.001).\nAdoptive transfer of OVA-pulsed Gnas^ΔCD11c CD11c^+ BM cells into mice was performed as described previously^55. […] 1 day after the last OVA challenge, mice were sacrificed and assessed by lung histology, measurement of serum immunoglobulins and cytokine production."}, "[5]": {"test_system": "Wild-type B6 mice", "assay": "Immunization with OVA, alum and cAMP-elevating agent; OVA-specific IL-17 (ELISA)", "assay_type": "in vivo, mouse", "conditions": "i.p. twice two weeks apart, OVA 50 μg/mice with alum; colforsin 1 mg/kg, IBMX 5 mg/kg; spleen cells of day 28 incubated 3 days with OVA; FIG. 16", "method": "FIG. 16 cAMP agents provoke IL-17 responses: Wild-type B6 mice were immunized intraperitoneally (i.p.) twice two weeks apart with OVA (50 μg/mice) with and without alum (20 mg/mice), and colforsin (CF; a cAMP elevating drug that is approved for human use in Japan, 1 mg/kg), IBMX (a PDE inhibitor, 5 mg/kg), or solvent only as a control; on day 28, single-cell suspensions were prepared from the spleens and incubated for 3 days with OVA (200 μg/mL) as we described earlier (16); IL-17 levels were then detected (ELISA); *p<0.05 and **p<0.01 compared with OVA/alum-immunized group, n=4/group.\nBased on the data presented above, co-immunization with antigen and a cAMP-elevating agent can induce a Th17 response. To promote stimulation of the same DC with antigen and cAMP agent, both were adsorbed to alum, an adjuvant used in humans (22), and immunized C57BL/6 (B6) mice with the combination."}},
  "data": [
    {"smiles": "CC1CCc2c(cc(Br)c(F)c2Br)N1C=O", "note": "(stereo not drawn) [CE3F4]", "values": [
      {"measurement": "pro-Th2 phenotype of WT CD11c+ BM cells (IL-4 levels of co-cultured OT-2 CD4+ T cells)", "setting": "[1]", "value": "but not with an EPAC inhibitor (CE3F4), promoted their pro-Th2 phenotype"}
    ]},
    {"smiles": "Nc1ncnc2c1nc(Sc1ccc(Cl)cc1)n2[C@@H]1O[C@@H]2COP(=O)([O-])O[C@H]2[C@H]1O.[Na+]", "note": "[CPT, 8-(4-Chlorophenylthio) adenosine 3′,5′-cyclic monophosphate sodium salt]", "values": [
      {"measurement": "IL-4 production by OT-2 CD4+ T cells co-cultured with treated Gnas^ΔCD11c BM cells", "setting": "[2]; 8-CPT-cAMP 50 μM, 24 h, in vitro, FIG. 14a", "value": "abolished the subsequent IL-4 production"},
      {"measurement": "CCL2 expression (mRNA, qPCR)", "setting": "[3]", "value": "decreased CCL2 expression"},
      {"measurement": "development of Th2 bias in recipients (IL-4 of splenic CD4+ T cells, serum IgE)", "setting": "[4]; FIG. 14c-d", "value": "inhibited development of Th2 bias"},
      {"measurement": "airway inflammation in recipients (lung histology)", "setting": "[4]; FIG. 14e", "value": "inhibited development of Th2 bias and airway inflammation"}
    ]},
    {"smiles": "CC(C)Cn1c(=O)n(C)c(=O)c2[nH]cnc21", "note": "[IBMX, 3-isobutyl-1-methylxanthine]", "values": [
      {"measurement": "OVA-specific IL-17 response", "setting": "[5]", "value": "provoked a robust OVA-specific IL-17 response"}
    ]},
    {"smiles": "O=P1(O)OCC2OC(n3cnc4c(Nc5ccccc5)ncnc43)C(O)C2O1", "note": "(stereo not drawn) [N6, Phenyladenosine-3′,5′-cyclic monophosphate]", "values": [
      {"measurement": "pro-Th2 phenotype of Gnas^ΔCD11c CD11c+ BM cells (IL-4 levels of co-cultured OT-2 CD4+ T cells)", "setting": "[2]; BM cells incubated with cAMP analogue 50 μM for 24 h, washed, co-cultured with OT-2 T cells, FIG. 9a", "value": "abolished the pro-Th2 phenotype"}
    ]},
    {"smiles": "C=C[C@@]1(C)CC(=O)[C@]2(O)[C@@]3(C)[C@@H](O)CCC(C)(C)[C@@H]3[C@H](O)[C@H](OC(C)=O)[C@@]2(C)O1", "note": "[colforsin]", "values": [
      {"measurement": "OVA-specific IL-17 response", "setting": "[5]", "value": "provoked a robust OVA-specific IL-17 response"}
    ]},
    {"smiles": "O=S(=O)(NCCNC/C=C/c1ccc(Br)cc1)c1cccc2cnccc12", "note": "[H-89]", "values": [
      {"measurement": "pro-Th2 phenotype of WT CD11c+ BM cells (IL-4 levels of co-cultured OT-2 CD4+ T cells)", "setting": "[1]", "value": "promoted their pro-Th2 phenotype"}
    ]}
  ]
}
